Counter-ions that a name gives are not always drawn.
Columns and labels:
[1] = target: BTK (Homo sapiens (Human), UniProt Q06187); assay: BTK enzyme experiment (ADP-Glo kinase assay); type: biochemical; details: 10 nM BTK, ATP 125 μM, Poly(Glu4, Tyr1), 90 minutes at 20° C.; read-out: BTK(WT) IC50
Description: (§1) A 3-fold gradient concentration stock solution of 1000× compound was prepared using DMSO and diluted 100-fold to 10× compound stock solution using reaction buffer (50 mM HEPES, pH 7.5, 0.0015% Briji-35, 2 mM DTT, 10 mM MgCl2), and the 10× compound stock solution was transferred to a 384-well plate. Enzyme reactions were set up with BTK Kinase Enzyme System (Promega Catalog #V2941) or BTK (C481S) Kinase Enzyme System (Promega Catalog #VA7033). First, a 2× enzyme solution containing 10 nM BTK or 10 nM BTK C481S was prepared with reaction buffer and added to the plate, and incubated with the compound for 10 minutes. […] Finally, the kinase activity was detected according to the experimental steps provided by ADP-Glo™ kinase Assay Kit (Promega, #V9101), and finally the luminescence chemiluminescence value was read. DMSO was used as the maximum signal value, and adding no enzyme was used as the minimum signal value. The inhibition rate of the compound (%)=(maximum signal value−compound signal value)/(maximum signal value−minimum signal value)×100% was calculated. The compound gradient dilution concentration and the corresponding inhibition rate of the enzyme activity were fit by using XLFit four-parameter method, and IC50 value was calculated.

[2] = target: BTK (C481S) (Homo sapiens (Human), UniProt Q06187, C481S); assay: BTK C481S enzyme experiment (ADP-Glo kinase assay); type: biochemical; details: 10 nM BTK C481S, ATP 125 μM, Poly(Glu4, Tyr1), 90 minutes at 20° C.
Description: as §1

[3] = tested on: TMD-8 cells; assay: TMD-8 proliferation inhibition experiment; type: cell-based; details: human diffuse large B lymphoma cells, three days incubation
Description: TMD-8 cells are human diffuse large B lymphoma (Mingzhou Bio, MZ-0832), cultured in 10% FBS+1% PS 1640 medium; OCI-LY10 is human diffuse large B lymphoma (BeNa Culture Collection, BNCC337742), cultured in 10% FBS+1% PS IMDM. Day 1: Cells at logarithmic growth phase were taken, counted and inoculated 600 TMD-8 or 2000 OCI-LY10 cells in a 384-well cell culture plate and cultured overnight. Day 2: A 3-fold gradient concentration stock solution of 400× compound was prepared with DMSO, and diluted 40-fold to a 10× compound stock solution with culture medium. The 10× compound stock solution was added to each cell culture well with a final concentration of 1× compound stock solution and a DMSO content of 0.25%. DMSO was used as experimental control, and culture medium was used as blank control. The incubation was continued for three days after compound addition. On the fifth day, 25 μL of […] was added to each well, mixed well and incubated for 10 minutes, then the chemiluminescence value (RLU value) was read. The cell proliferation inhibition rate (%)=(RLUcontrol−RLUcompound)/(RLUcontrol−RLUblank)×100% was calculated. The compound gradient dilution concentration and the corresponding cell proliferation inhibition rate were fit by using XLFit four-parameter method, and IC50 value was calculated.

Sequence of BTK (Q06187 whole entry): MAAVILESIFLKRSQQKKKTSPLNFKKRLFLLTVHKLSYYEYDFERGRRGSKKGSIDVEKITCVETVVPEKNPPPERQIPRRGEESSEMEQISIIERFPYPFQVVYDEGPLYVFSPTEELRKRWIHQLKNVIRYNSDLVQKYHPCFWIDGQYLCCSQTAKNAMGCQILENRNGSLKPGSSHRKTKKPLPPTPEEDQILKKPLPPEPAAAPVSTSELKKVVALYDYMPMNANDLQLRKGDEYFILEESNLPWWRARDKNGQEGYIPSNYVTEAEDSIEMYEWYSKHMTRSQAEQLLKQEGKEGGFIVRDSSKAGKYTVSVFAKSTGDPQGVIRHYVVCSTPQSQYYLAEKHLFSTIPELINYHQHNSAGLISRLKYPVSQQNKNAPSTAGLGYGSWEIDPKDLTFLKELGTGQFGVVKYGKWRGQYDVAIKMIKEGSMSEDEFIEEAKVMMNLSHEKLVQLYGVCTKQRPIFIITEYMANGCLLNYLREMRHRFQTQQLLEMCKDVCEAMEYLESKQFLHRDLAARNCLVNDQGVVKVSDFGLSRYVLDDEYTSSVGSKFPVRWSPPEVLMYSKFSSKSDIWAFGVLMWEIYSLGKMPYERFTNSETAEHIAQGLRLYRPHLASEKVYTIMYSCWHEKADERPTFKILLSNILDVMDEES
Sequence of BTK (C481S) (Q06187 whole entry C481S): as the sequence (Q06187 whole entry) above, with C481S counted along it

Row | Structure (SMILES) | IC50 [1] [nM] | IC50 [2] [nM] | IC50 [3] [nM] | IC50 ([3]; Homo sapiens, TMD8, 72 h) [nM]
1 | [2H]C([2H])([2H])OC[C@@]1(C)Nc2c(cnc3[nH]cc(C(=O)c4ccc(Oc5ccccc5)cc4Cl)c23)NC1=O (single isomer, unassigned) [Z66-2] | 12.7 | 8.6 | – | 299
2 | COC[C@]1(C)Nc2c(cnc3[nH]cc(C(=O)c4ccc(Oc5cccc(F)c5OC)cc4Cl)c23)NC1=O [Z173, (S)-9-(2-chloro-4-(3-fluoro-2-methoxyphenoxy)benzoyl)-2-(methoxymethyl)-2-methyl-1,2,4,7-tetrahydro-3H-pyrrolo[3′,2′:5,6]pyrido[3,4-b]pyrazin-3-one] | 26.5 | 18.4 | – | 366
3 | COCCOCC1(C)Nc2c(cnc3[nH]cc(C(=O)c4ccc(Oc5ccccc5)cc4Cl)c23)NC1=O (single isomer, unassigned) [Z153-1, 9-(2-chloro-4-phenoxybenzoyl)-2-((2-methoxyethoxy)methyl)-2-methyl-1,2,4,7-tetrahydro-3H-pyrrolo[3′,2′:5,6]pyrido[3,4-b]pyrazin-3-one] | 45.8 | 26 | – | 342
4 | COC[C@]1(C)Nc2c(cnc3[nH]cc(C(=O)c4ccc(Oc5ccccc5OC)cc4Cl)c23)NC1=O [Z163, (S)-9-(2-chloro-4-(2-methoxyphenoxy)benzoyl)-2-(methoxymethyl)-2-methyl-1,2,4,7-tetrahydro-3H-pyrrolo[3′,2′:5,6]pyrido[3,4-b]pyrazin-3-one] | 10.6 | 16.5 | – | 75.7
5 | O=C(c1ccc(Oc2ccccc2)cc1Cl)c1c[nH]c2ncc3c(c12)NC1(CCOC1)C(=O)N3 (stereo not shown) [Z1, 9′-(2-chloro-4-phenoxybenzoyl)-4,4′,5,7′-tetrahydro-2H-spiro[furan-3,2′-pyrrolo[3′,2′:5,6]pyrido[3,4-b]pyrazin]-3′(1′H)-one] | 41.2 | 18.9 | – | 156
6 | COC[C@]1(C)Nc2c(cnc3[nH]cc(C(=O)c4ccc(Oc5c(OC)ccc(F)c5F)cc4Cl)c23)NC1=O [Z177, (S)-9-(2-chloro-4-(2,3-difluoro-6-methoxyphenoxy)benzoyl)-2-(methoxymethyl)-2-methyl-1,2,4,7-tetrahydro-3H-pyrrolo[3′,2′:5,6]pyrido[3,4-b]pyrazin-3-one] | 6.4 | 11.1 | – | 34.6
7 | COC[C@]1(C)Nc2c(cnc3[nH]cc(C(=O)c4ccc(Oc5ccccc5)cc4Cl)c23)N(CCO)C1=O [Z143] | 35.6 | 23.2 | 291 | –
8 | Cc1ccnc(Oc2ccc(C(=O)c3c[nH]c4ncc5c(c34)NC3(CCOCC3)C(=O)N5C)c(Cl)c2)c1 [Z72, 9′-(2-chloro-4-((4-methylpyridin-2-yl)oxy)benzoyl)-4′-methyl-2,3,4′,5,6,7′-hexahydrospiro[pyran-4,2′-pyrrolo[3′,2′:5,6]pyrido[3,4-b]pyrazin]-3′(1′H)-one] | 40 | 37.2 | – | 404
9 | CCOC[C@]1(C)Nc2c(cnc3[nH]cc(C(=O)c4ccc(Oc5cc(C)ccn5)cc4Cl)c23)NC1=O [Z167, (S)-9-(2-chloro-4-((4-methylpyridin-2-yl)oxy)benzoyl)-2-(ethoxymethyl)-2-methyl-1,2,4,7-tetrahydro-3H-pyrrolo[3′,2′:5,6]pyrido[3,4-b]pyrazin-3-one] | 11.2 | 12.1 | – | 372
10 | [2H]C([2H])([2H])Oc1cccc(F)c1Oc1ccc(C(=O)c2c[nH]c3ncc4c(c23)N[C@@](C)(COC)C(=O)N4)c(Cl)c1 [Z187] | – | – | – | 41.3
11 | COCC1(C)Nc2c(cnc3[nH]cc(C(=O)c4ccc(Oc5ccccc5)cc4Cl)c23)N(C)C1=O (single isomer, unassigned) [Z52-2, 9-(2-chloro-4-phenoxybenzoyl)-2-(methoxymethyl)-2,4-dimethyl-1,2,4,7-tetrahydro-3H-pyrrolo[3′,2′:5,6]pyrido[3,4-b]pyrazin-3-one] | 136 | 92.3 | – | –
12 | COC[C@]1(C)Nc2c(cnc3[nH]cc(C(=O)c4ccc(Oc5ccccc5)cc4)c23)NC1=O [Z125-1, (S)-2-(methoxymethyl)-2-methyl-9-(4-phenoxybenzoyl)-1,2,4,7-tetrahydro-3H-pyrrolo[3′,2′:5,6]pyrido[3,4-b]pyrazin-3-one] | 28.2 | 29.1 | – | –
13 | COCCOCC1(C)Nc2c(cnc3[nH]cc(C(=O)c4ccc(Oc5ccccc5)cc4Cl)c23)NC1=O (single isomer, unassigned) [Z153-2, 9-(2-chloro-4-phenoxybenzoyl)-2-((2-methoxyethoxy)methyl)-2-methyl-1,2,4,7-tetrahydro-3H-pyrrolo[3′,2′:5,6]pyrido[3,4-b]pyrazin-3-one] | 114 | 51.1 | – | –

Further lines, with some results ahead:

Row | IC50 [1] [nM] | IC50 [2] [nM] | Structure (SMILES) | IC50 [3] [nM] | IC50 ([3]; Homo sapiens, TMD8, 72 h) [nM]
14 | 15.1 | 10 | COC1CCC2(C1)Nc1c(cnc3[nH]cc(C(=O)c4ccc(Oc5ccccc5)cc4Cl)c13)NC2=O (single isomer, unassigned) [Z25-3b, 9′-(2-chloro-4-phenoxybenzoyl)-3-methoxy-4′,7′-dihydrospiro[cyclopentane-1,2′-pyrrolo[3′,2′:5,6]pyrido[3,4-b]pyrazin]-3′(1′H)-one] | 140 | –
15 | 30.6 | 31.2 | COCC1(C)Nc2c(cnc3[nH]cc(C(=O)c4ccc(Oc5cc(C)ccn5)cc4Cl)c23)N(C)C1=O (stereo not shown) [Z65, 9-(2-chloro-4-((4-methylpyridin-2-yl)oxy)benzoyl)-2-(methoxymethyl)-2,4-dimethyl-1,2,4,7-tetrahydro-3H-pyrrolo[3′,2′:5,6]pyrido[3,4-b]pyrazin-3-one formate] | – | 509
16 | 9.3 | 13.1 | [2H]C([2H])([2H])OC[C@]1(C)Nc2c(cnc3[nH]cc(C(=O)c4ccc(Oc5ncccc5F)cc4Cl)c23)NC1=O [Z145, (S)-9-(2-chloro-4-((3-fluoropyridin-2-yl)oxy)benzoyl)-2-((methoxy-d3)methyl)-2-methyl-1,2,4,7-tetrahydro-3H-pyrrolo[3′,2′:5,6]pyrido[3,4-b]pyrazin-3-one] | – | 166
17 | 32.6 | 20.8 | CN1C(=O)[C@@](C)(CO)Nc2c1cnc1[nH]cc(C(=O)c3ccc(Oc4ccccc4)cc3Cl)c21 (single isomer, unassigned) [Z51-2] | 154 | –
18 | 70.2 | 25.4 | O=C(c1ccc(Oc2ccccc2)cc1Cl)c1c[nH]c2ncc3c(c12)NC1(CCN(C(=O)C2CC2)C1)C(=O)N3 (stereo not shown) [Z10] | 310 | –
19 | 23.6 | 17.5 | N#C[C@H]1CC[C@@]2(C1)Nc1c(cnc3[nH]cc(C(=O)c4ccc(Oc5ccccc5)cc4Cl)c13)NC2=O (single isomer, unassigned) [Z26-2] | 159 | –
20 | 40 | 23.2 | COC[C@@]1(C)Nc2c(cnc3[nH]cc(C(=O)c4ccc(Oc5ccccc5)cc4Cl)c23)NC1=O [Z13-2] | 183 | –
21 | 25.6 | 36 | [2H]C([2H])([2H])OC[C@]1(C)Nc2c(cnc3[nH]cc(C(=O)c4ccc(Oc5cccc(F)c5)cc4Cl)c23)NC1=O [Z162, (S)-9-(2-chloro-4-(3-fluorophenoxy)benzoyl)-2-((methoxy-d3)methyl)-2-methyl-1,2,4,7-tetrahydro-3H-pyrrolo[3′,2′:5,6]pyrido[3,4-b]pyrazin-3-one] | – | 169
22 | 15.3 | 29.5 | COCC1(C)Nc2c(cnc3[nH]cc(C(=O)c4ccc(Oc5cc(C6CC6)ccn5)cc4Cl)c23)NC1=O (single isomer, unassigned) [Z73-1, 9-(2-chloro-4-((4-cyclopropylpyridin-2-yl)oxy)benzoyl)-2-(methoxymethyl)-2-methyl-4,7-dihydro-1H-pyrrolo[3′,2′:5,6]pyrido[3,4-b]pyrazin-3(2H)-one] | – | –
23 | 35.2 | 19.7 | COCCN1C(=O)[C@](C)(COC)Nc2c1cnc1[nH]cc(C(=O)c3ccc(Oc4ccccc4)cc3Cl)c21 [Z142] | – | –
24 | 23.1 | 12.6 | CN1CCCC2(C1)Nc1c(cnc3[nH]cc(C(=O)c4ccc(Oc5ccccc5)cc4Cl)c13)NC2=O (stereo not shown) [Z19, 9′-(2-chloro-4-phenoxybenzoyl)-1-methyl-4′,7′-dihydrospiro[piperidine-3,2′-pyrrolo[3′,2′:5,6]pyrido[3,4-b]pyrazin]-3′(1′H)-one] | – | –
